The source of these data is US20030166932A1 (priority 2002, published 2003).

For assay [1], the target named is T1, RXRα (Homo sapiens, UniProt P19793).
T1 sequence (P19793 1-462): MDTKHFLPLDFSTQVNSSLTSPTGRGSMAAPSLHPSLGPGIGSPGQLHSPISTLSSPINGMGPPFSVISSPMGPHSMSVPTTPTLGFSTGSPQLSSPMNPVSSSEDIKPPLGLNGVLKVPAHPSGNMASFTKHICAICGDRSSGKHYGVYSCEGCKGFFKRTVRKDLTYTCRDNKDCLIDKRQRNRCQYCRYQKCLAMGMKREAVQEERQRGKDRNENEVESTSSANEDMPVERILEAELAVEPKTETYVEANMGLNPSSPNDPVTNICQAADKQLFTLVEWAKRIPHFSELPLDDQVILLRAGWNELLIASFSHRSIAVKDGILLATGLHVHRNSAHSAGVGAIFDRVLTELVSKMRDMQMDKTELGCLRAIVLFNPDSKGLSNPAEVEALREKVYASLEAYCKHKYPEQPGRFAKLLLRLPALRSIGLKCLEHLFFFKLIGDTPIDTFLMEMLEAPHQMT
Nature of the assay: ligand binding assay.
From the text: (§1) The results obtained in this assay are expressed in EC50 numbers, as they are also in the chimeric receptor transactivation assay. The results of ligand binding assay are expressed in Kd numbers.
(§2) Particularly, the transactivation data pertaining to RAR receptors were obtained in the chimeric assay, and the data pertaining to transactivation of RXR receptors were obtained in the holoreceptor transactivation assay.

Assay [2] deals with T2, RXRβ (UniProt P28704).
T2 sequence (P28704 1-520): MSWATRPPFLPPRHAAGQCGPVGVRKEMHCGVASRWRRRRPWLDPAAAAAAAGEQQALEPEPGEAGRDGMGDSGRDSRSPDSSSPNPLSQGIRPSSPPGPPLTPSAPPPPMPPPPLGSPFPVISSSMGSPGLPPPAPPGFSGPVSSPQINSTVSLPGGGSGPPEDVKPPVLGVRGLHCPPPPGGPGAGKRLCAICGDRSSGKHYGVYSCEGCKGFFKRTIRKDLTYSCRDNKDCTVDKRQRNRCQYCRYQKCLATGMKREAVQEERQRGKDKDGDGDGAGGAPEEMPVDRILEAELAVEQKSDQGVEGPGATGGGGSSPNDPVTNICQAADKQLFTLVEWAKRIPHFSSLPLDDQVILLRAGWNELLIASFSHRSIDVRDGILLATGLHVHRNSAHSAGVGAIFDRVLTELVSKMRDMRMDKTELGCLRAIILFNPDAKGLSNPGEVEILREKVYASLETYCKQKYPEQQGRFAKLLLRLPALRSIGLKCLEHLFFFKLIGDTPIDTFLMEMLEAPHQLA
Put plainly: ligand binding assay. The note with it: read-out: RXR Bind Ki (nM) β.
From the text: as §1, §2

The target in assay [3] is T2, RXRβ. Put plainly: holoreceptor transactivation assay. The format is cell-based. As to conditions: for EC50: NA = Not Active, read-out: RXR Trans. EC50 (nM) β; for % efficacy, RXR Trans. β: relative to 10^−6 M AGN 194204.
From the text: as §1, §2
In assay [4] the target is T1, RXRα. Put plainly: holoreceptor transactivation assay. As to conditions: for Emax: read-out: % efficacy, RXR Trans. α.
From the text: as §1, §2
The target in the next assay is T3, RXRγ (UniProt P28705).
T3 sequence (P28705 1-463): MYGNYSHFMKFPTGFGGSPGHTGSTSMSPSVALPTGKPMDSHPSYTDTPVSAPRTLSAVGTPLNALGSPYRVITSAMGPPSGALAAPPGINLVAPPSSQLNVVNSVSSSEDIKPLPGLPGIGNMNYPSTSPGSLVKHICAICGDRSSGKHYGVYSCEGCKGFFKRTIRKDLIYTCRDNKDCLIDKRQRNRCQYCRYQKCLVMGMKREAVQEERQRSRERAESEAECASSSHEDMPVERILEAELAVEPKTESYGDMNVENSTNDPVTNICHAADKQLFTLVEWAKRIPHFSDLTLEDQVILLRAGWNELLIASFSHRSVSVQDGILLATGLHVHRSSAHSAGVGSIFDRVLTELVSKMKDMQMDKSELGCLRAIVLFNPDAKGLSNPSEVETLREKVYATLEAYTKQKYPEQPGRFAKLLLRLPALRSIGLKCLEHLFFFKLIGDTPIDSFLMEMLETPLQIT
Put plainly: holoreceptor transactivation assay. The class given is cell-based. As to conditions: for EC50: NA = Not Active, read-out: RXR Trans. EC50 (nM) Y; for % efficacy, RXR Trans. Y: relative to 10^−6 M AGN 194204.

The target in a further assay is T4, RARβ (Homo sapiens, UniProt P10826).
T4 sequence (P10826 1-455): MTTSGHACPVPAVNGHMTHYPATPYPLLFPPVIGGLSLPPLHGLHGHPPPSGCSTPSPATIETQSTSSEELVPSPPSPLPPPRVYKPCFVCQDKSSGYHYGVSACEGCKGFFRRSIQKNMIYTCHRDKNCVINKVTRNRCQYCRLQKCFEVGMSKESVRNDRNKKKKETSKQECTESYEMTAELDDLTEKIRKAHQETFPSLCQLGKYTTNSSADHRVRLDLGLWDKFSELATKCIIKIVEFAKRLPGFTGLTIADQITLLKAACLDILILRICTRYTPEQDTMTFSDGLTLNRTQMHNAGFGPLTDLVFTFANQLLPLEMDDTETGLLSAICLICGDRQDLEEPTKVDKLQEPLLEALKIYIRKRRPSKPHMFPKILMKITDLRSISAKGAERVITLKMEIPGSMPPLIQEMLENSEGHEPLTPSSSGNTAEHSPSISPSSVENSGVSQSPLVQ
Nature of the assay: ligand binding assay. The note with it: read-out: RAR Bind. Ki (nM) β.

The target of a further assay is T5, RARγ (Homo sapiens, UniProt P13631).
T5 sequence (P13631 1-454): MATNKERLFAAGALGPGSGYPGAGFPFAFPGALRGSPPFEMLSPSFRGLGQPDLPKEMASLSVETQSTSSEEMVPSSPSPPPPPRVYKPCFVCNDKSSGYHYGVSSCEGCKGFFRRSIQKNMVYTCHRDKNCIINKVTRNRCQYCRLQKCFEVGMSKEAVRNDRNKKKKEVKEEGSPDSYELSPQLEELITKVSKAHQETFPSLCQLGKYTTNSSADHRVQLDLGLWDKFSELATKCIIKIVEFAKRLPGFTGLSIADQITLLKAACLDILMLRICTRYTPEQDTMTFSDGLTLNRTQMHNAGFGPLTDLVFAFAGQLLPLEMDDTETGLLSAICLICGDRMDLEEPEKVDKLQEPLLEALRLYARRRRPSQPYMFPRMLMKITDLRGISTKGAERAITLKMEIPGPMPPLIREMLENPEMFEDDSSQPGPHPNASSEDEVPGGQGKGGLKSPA
Put plainly: ligand binding assay. The note with it: read-out: RAR Bind. Ki (nM) Y.

From the text for RARβ: as §1, §2
From the text for RARγ: as §1, §2
From the text for RXRγ: as §1, §2

On to `CCN(c1ccc(C(=O)O)cc1)c1cc2c(cc1C)C(C)(C)CC=C2C` [Compound 23, 4-[Ethyl(3,5,5,8-tetramethyl-5,6-dihydronaphthalen-2-yl)amino]benzoic acid], for which the inhibition constant Ki at RXRα [1] came out at 8 nM; at RXRβ [2], 309 nM; at RARβ, 16000 nM. For the same molecule, the figures for the half-maximal effective concentration (EC50) on RXRβ [3], on RXRα [4] and on RXRγ were 149 nM, 21 nM and 41 nM, respectively. In addition, the “% efficacy, RXR Trans. β” value at RXRβ [3] is recorded as “(101) %”. Further, at RXRα [4], the Emax stood at 101%. For the same molecule, the “% efficacy, RXR Trans. Y” value on RXRγ is reported as “(119) %”.
On to `CCC1=CCC(C)(C)c2cc(C)c(N(CC)c3ccc(C(=O)O)cc3)cc21` [Compound 24, 4-[Ethyl(8-ethyl-3,5,5-trimethyl-5,6-dihydronaphthalen-2-yl)amino]benzoic acid], for which the Ki at RXRα [1] is 29 nM; at RXRβ [2], 66 nM; at RARγ, 13000 nM; at RARβ, 9100 nM. Moreover, the EC50 at RXRβ [3] is 10 nM; at RXRα [4] it was 1 nM; at RXRγ, 2 nM. Also, on RXRβ [3], the “% efficacy, RXR Trans. β” value is “(96) %”. Moreover, the Emax at RXRα [4] was 100%. The “% efficacy, RXR Trans. Y” value at RXRγ is on record as “(102) %”.
Take `CC1=CCC(C)(C)c2cc(N(CC3CC3)c3ccc(C(=O)O)cc3)c(C)cc21` [Compound 47, 4-[Cyclopropylmethyl(3,5,8,8-tetramethyl-7,8-dihydronaphthalen-2-yl)amino]benzoic acid]: the inhibition constant (Ki) at RXRα [1] is 2500 nM; at RXRβ [2], above 1000 nM; at RARγ, above 10000 nM; on RARβ it was above 10000 nM. For the same molecule, the Emax on RXRα [4] amounted to 65%. In addition, at RXRγ, the “% efficacy, RXR Trans. Y” value is reported as “(70) %”.
`CCC1=CCC(C)(C)c2cc(N(CC)c3ccc(C(=O)O)cc3)c(C)cc21` [Compound 59, 4-[Ethyl(5-ethyl-3,8,8-trimethyl-7,8-dihydronaphthalen-2-yl)amino]benzoic acid]: the inhibitory constant (Ki) on RXRα [1] was 282 nM; on RARγ it was above 10000 nM; at RARβ it was above 10000 nM. Also, the “% efficacy, RXR Trans. β” value on RXRβ [3] is “(100) %”. For the same molecule, the Emax at RXRα [4] was found to be 100%. The “% efficacy, RXR Trans. Y” value on RXRγ is reported as “(100) %”.
As to `CCCCCCOc1cc2c(cc1N(CC)c1ccc(C(=O)O)cc1)C(C)=CCC2(C)C` [Compound 142, 4-[Ethyl-(3-n-hexyloxy-5,5,8-trimethyl-5,6-dihydronaphthalen-2-yl)amino]benzoic Acid], the Ki at RXRα [1] is 190 nM; on RXRβ [2], 111 nM; on RARγ, above 1000 nM; on RARβ it was 1000 nM.
The matching figures for `CCCCCCCOc1cc2c(cc1N(CC)c1ccc(C(=O)O)cc1)C(C)=CCC2(C)C` [Compound 143, 4[Ethyl-(3-n-heptyloxy-5,5,8-trimethyl-5,6-dihydronaphthalen-2-yl)amino]benzoic acid]: 175 nM, 449 nM, 8400 nM and 1700 nM.
With `CCN(c1ccc(C(=O)O)cc1)c1cc2c(cc1OCc1ccccc1)C(C)(C)CC=C2C` [Compound 144, 4-[(3-Benzyloxy-5,5,8-trimethyl-5,6-dihydronaphthalen-2-yl)ethylamino]benzoic acid], the Ki on RXRα [1] came out at 77 nM; at RXRβ [2], 224 nM; at RARγ, 8100 nM; on RARβ it was 2700 nM.
Turning to `CCCCCCOc1cc2c(cc1N(CCC)c1ccc(C(=O)O)cc1)C(C)=CCC2(C)C` [Compound 145, 4-[(3-n-Hexyloxy-5,5,8-trimethyl-5,6-dihydronaphthalen-2-yl)-n-propylamino]benzoic acid], the Ki on RXRα [1] came out at 229 nM; at RXRβ [2], 475 nM; on RARγ, 6000 nM; on RARβ it was 771 nM. For the same molecule, on RXRγ, the EC50 was above 1000 nM. The “% efficacy, RXR Trans. Y” value on RXRγ is recorded as “(10) %”.
Regarding `CCCCCCCOc1cc2c(cc1N(CCC)c1ccc(C(=O)O)cc1)C(C)=CCC2(C)C` [Compound 146, 4-[(3-n-Heptyloxy-5 5,8-trimethyl-5,6-dihydronaphthalen-2-yl)-n-propylamino]benzoic acid], the inhibitory constant (Ki) is 206 nM on RXRα [1], 429 nM on RXRβ [2], 2800 nM at RARγ and 576 nM on RARβ.
As to `CCCN(c1ccc(C(=O)O)cc1)c1cc2c(cc1OCc1ccccc1)C(C)(C)CC=C2C` [Compound 147, 4-[(3-Benzyloxy-5 5,8-trimethyl-5,6-dihydronaphthalen-2-yl)-n-propylamino]benzoic acid], the Ki on RXRα [1] amounted to 241 nM; on RXRβ [2] it was 501 nM; at RARγ, 15000 nM; at RARβ, 4800 nM. Besides, at RXRγ, the concentration giving a half-maximal response (EC50) came to 280 nM. In addition, the “% efficacy, RXR Trans. Y” value at RXRγ is “(13) %”.
As for `CCCCCCOc1cc2c(cc1N(CC)c1ccc(C(=O)O)cc1)C(C(C)C)=CCC2(C)C` [Compound 153, 4-[Ethyl-(3-n-hexyloxy-8-isopropyl-5,5-dimethyl-5,6-dihydronaphthalen-2-yl)amino]benzoic acid], the inhibitory constant (Ki) on RXRα [1] came out at 22 nM; on RXRβ [2], 106 nM; on RARγ it was 8900 nM; at RARβ, 4800 nM.
With `CCN(c1ccc2c(c1)C(C(C)(C)C)=CCC2(C)C)c1ccc(C(=O)O)cn1` [Compound 173, 6-[(8-t-Butyl-5,5-dimethyl-5,6-dihydro-naphthalen-2-yl)-ethyl-amino]-nicotinic acid], at RXRβ [3], the EC50 was 9 nM and the “% efficacy, RXR Trans. β” value is reported as “(132) %”. At RXRα [4], the EC50 was 1 nM and the Emax turned out to be 120%. Further, on RXRγ, the EC50 was 2 nM and the “% efficacy, RXR Trans. Y” value is on record as “(125) %”.

A word on the Ki: it is a measure of affinity in units of concentration, obtained from inhibition or displacement. A word on the EC50: it is the concentration at which the effect is half-maximal.
